Laboratory results reported in a melting point compilation (Tetko et al.; mined from patent text by program, amines drawn as free bases though some values may be those of a salt).

Row | Structure (SMILES) | melting point [°C]
1 | COCCc1nc2c(N)nc3ccccc3c2n1CCCCNC(=O)c1nccc2ccccc12 | 61 to 63
2 | CN(CCOc1ccc2c(c1)OC(C)(C)C=C2c1ccc2ccccc2c1)Cc1ccccc1 | 112 to 115
3 | N#CC1(Cl)C=C(O)C=NC1 (stereo not drawn) | 182 to 184
4 | COc1nc(N)nc2c1CCC2 | 134 to 135
5 | CCC(=O)N1CCC(NC(=O)N[C@@H]2C[C@H]2c2ccccc2)CC1 (relative stereo) | 155 to 158
6 | Cc1nc2c(s1)-c1nc(Nc3ccc(N(C)C)cc3)ncc1CC2 | 176 to 177
7 | Cc1oc(-c2ccccc2)nc1CN(C)C(=O)c1ccc(C=C2SC(=O)NC2=O)cc1 | 95 to 98
8 | O=C(Nc1ccc(C(F)(F)F)cc1)c1ccccc1NCc1ccncc1 | 171 to 175
9 | CC1(C)N=C(NC(=O)c2ccco2)N=C(NC(=O)c2ccco2)N1OCc1cccc2ccccc12 | 173 to 177
10 | O=C(O)Cc1cccc(-c2cccc(COC3OC(CO)C(O)C(O)C3O)c2)c1 (stereo not drawn) | 74 to 75
11 | COc1ccc(C=C2SC(N3CCOCC3)=NC2=O)cc1-c1ccc(O)c(C23CC4CC(CC(C4)C2)C3)c1 | 339 to 343
12 | CCOC(=O)c1ncn2c1CN(C)C(=O)c1c(Br)cccc1-2 | 214 to 215
13 | COc1ccc(S(=O)(=O)N2CCc3cccc(-c4ccccc4)c32)cc1 | 166 to 168
14 | CC(=O)C1CCC2C3CCC4CC(=O)CCC4(C)C3C(OC(=O)CCl)CC12C (stereo not drawn) | 133 to 135
15 | CON=C(C(=O)O)c1cccs1 | 106
16 | O=C(O)c1ccc(C(=O)N2CCCc3ccccc32)cc1 | 181 to 183
17 | CC(=O)C1=CCC2C3CCC4=CC(=O)C=CC4(C)C3(F)C(O)CC12C (stereo not drawn) | 327 to 328
18 | CSc1ccc(-c2n[nH]c(C(F)(F)F)c2-c2ccc(F)cc2)cc1 | 189 to 190
19 | CCCCc1cc(=O)c2ccccc2[nH]1 | 140
20 | CC(C#N)c1ccc(Cc2ccccc2CC#N)cc1 (stereo not drawn) | 61 to 64
21 | CCCN1CC=C(c2c(C)[nH]c3cc(OC)ccc23)CC1 | 90 to 95
22 | O=C(NO)c1ccc(CNC(=O)c2[nH]c(-c3cccs3)cc2-c2ccc(F)cc2)cn1 | 189 to 191
23 | O=C(NCC(c1ccccc1)c1ccccc1)C1Cc2ccccc2N1S(=O)(=O)c1ccc(-c2ccc(F)cc2)cc1 (stereo not drawn) | 80 to 82
24 | c1csc(OCCOc2ccc3ccccc3c2)c1 | 129 to 130

Row | Structure (SMILES) | melting point [°C]
25 | Fc1cccc(F)c1-c1cnnc(-c2ccc(-c3ccc(OC(F)(F)F)cc3)cc2)n1 | 159 to 160
26 | Oc1ccc2c(c1O)OCC(c1cccc(Cl)c1)C2 (stereo not drawn) | 99 to 101
27 | O=C(CCl)Nc1ccc2c(c1NC(=O)c1ccccc1Cl)C(=O)c1ccccc1C2=O | 193 to 194
28 | CCC1(CC)NC(C)(COC(=O)C(C)(C)C)COC1=O (stereo not drawn) | 51 to 53
29 | O=C(O)c1cccc(CCl)c1 | 134 to 136
30 | CC(c1ccccc1)N1CCN(c2nn(C)c3c2Cc2ccccc2-3)CC1 (stereo not drawn) | 138 to 139
31 | O=S1(=O)N=C(O)C(O)=N1 | 171 to 172
32 | COCCSc1cc(N)ncn1 | 78 to 80
33 | CCN(CC)C(=O)Nc1ccccc1 | 81 to 85
34 | O=C(Nc1ccc(C(F)(F)F)cc1)N1CC(c2ccc(Cl)cc2)C(c2ccc(Cl)cc2)N1 (stereo not drawn) | 242 to 243
35 | CC(=O)OCC1OC(n2c3ncccc3c3c4c(c5c6cccnc6[nH]c5c32)C(=O)N(CO)C4=O)C(OC(C)=O)C(OC(C)=O)C1OC(C)=O (stereo not drawn) | > 300
36 | CCCN(CCC)CC1CCN(CCNC(=O)N2c3ccccc3C(=O)Nc3cccnc32)C1 (stereo not drawn) | 134 to 138
37 | Clc1ccc(N2CC=C(COc3ccc(C4=NCCO4)cc3)CC2)nn1 | 176
38 | O=C(OCn1cc(F)c(=O)n(COC(=O)c2ccccc2)c1=O)c1ccccc1 | 178 to 180
39 | CCN(CC)C(=O)CN1C(=O)C(NC(=O)Nc2ccc(Cl)cc2)N=C(c2ccccc2)c2ccccc21 (stereo not drawn) | 284 to 285
40 | O=C(Nc1ccccc1)OCCCC(=O)c1ccccc1 | 121 to 123
41 | CCCc1nc2cncc(C)c2[nH]1 | 173 to 175
42 | CCCCCCCOc1ccc(CNc2ccc(C(=O)O)cc2)cc1 | 148 to 152
43 | N#CC=C1CCN(c2ccc(N3C[C@H](CNC(=O)C(F)F)OC3=O)cc2F)CC1 | 162 to 164
44 | CNC(=O)N1CCC(Oc2ccc(C(F)(F)F)cc2)(c2ccccc2)CC1 | 118 to 120
45 | Nc1ccc(-n2nnn(CCCC3CCCCC3)c2=O)cc1 | 64 to 69
46 | CS(=O)(=O)c1ccc(Br)cc1Br | 124 to 126
47 | CCOc1ccc(C(=O)CCC(=O)Nc2sc(-c3ccccc3)nc2-c2ccccc2)cc1 | 169 to 170

Next, values leading:

Row | melting point [°C] | Structure (SMILES)
48 | 185 to 187 | CN(C)C(=S)SCn1c(Br)c(Br)c(S(=O)(=O)C(F)(F)F)c1-c1ccc(Cl)cc1
49 | 159 to 160 | COc1ccc2cc3c(N)nn(-c4ccccc4)c3nc2c1
50 | 161 to 163 | O=C(Nc1cc(Cl)cc(Cl)c1O)Nc1cccc(C(F)(F)F)c1Cl
51 | 79 to 80 | COc1ccc(CC(=O)O)cc1OC1CCCC1
52 | 106 to 108 | COc1cc(C(C)=NN)ccc1OCCCN1CCC(c2noc3cc(F)ccc23)CC1
53 | 71 to 73 | CCCC[C@H](NC(=O)[C@H](COC(C)(C)C)NC(=O)OCc1ccccc1)C(=O)CSCc1ccco1
54 | 172 | COc1nc(NC(=O)NS(=O)(=O)Nc2nc(C)cc(C)n2)nc(OC)n1
55 | 156 | COc1ccc(Nc2nc(Cl)nc(NCC3CCCCC3)n2)cc1F
56 | 100 to 102 | CCOc1nc(NCc2ccco2)nc(Nc2ccc(OC)c(OC)c2)n1
57 | 198 to 199 | O=C1C(=O)N2CCCc3cc([N+](=O)[O-])cc1c32
58 | 182 to 183 | Nc1ccc(NC(=O)CC(=O)c2ccccc2)cc1[N+](=O)[O-]
59 | 188 to 190 | CNc1ncnc2c1ncn2Cc1c(F)cccc1Cl
60 | 179 | COc1ccccc1COc1nc2c(oc3ccccc32)c(-c2ccc3c(c2)OCCO3)c1C(=O)O
61 | 59 to 62 | COc1c(Cl)cc(F)cc1C=O
62 | 89 to 91 | CC(C)(C)NCC(O)COc1cccc2nsnc12 (stereo not drawn)
63 | 120 to 123 | CC(C)n1nnc2c(NCc3ccccc3O)nc(N[C@H]3CC[C@H](N)CC3)nc21
64 | 224 | CC(=O)Nc1cc(Cl)c(Br)c(Cl)c1
65 | 125 to 128 | COc1c(C(O)c2ncc([N+](=O)[O-])n2C)cc(O)cc1C(C)(C)C (stereo not drawn)
66 | 225 to 227 | COc1cc2nc(N3CCN(C(=O)C=Cc4cccc(C(F)(F)F)c4)CC3)nc(N)c2cc1OC
67 | 151 to 154 | C=CC(=O)NC1=NN(c2c(Cl)cc(Cl)cc2Cl)C(=O)C1c1cc[nH]n1 (stereo not drawn)
68 | 255 to 256 | COc1nc(C)n2nc(S(=O)(=O)Nc3c(Cl)cccc3Cl)nc2c1Cl
69 | 135 to 136 | COC(=O)c1cnc(OCc2ccccn2)nc1NCc1ccc(OC)c(Cl)c1
70 | 96 to 97 | COCN1C(C)=C(C(=O)OCOC(=O)C(C)(C)C)C(c2ccccc2C(F)(F)F)C(C(=O)OCOC(=O)C(C)(C)C)=C1C
71 | 142 to 143 | COc1cc(C(C)=O)ccc1OCCCN1CCC(C(O)(c2ccc(F)cc2)c2ccc(F)cc2)CC1
72 | 69 to 71 | Cc1ccc([N+](=O)[O-])c2c1CC(C)O2 (stereo not drawn)
73 | 84 to 85 | CCOC(=O)Cc1nc(-c2ccc(C)cc2)oc1-c1ccco1

Row | melting point [°C] | Structure (SMILES)
74 | 92 to 93 | CC(C)(C)C(CC#N)(SN=O)C(C)(C)C
75 | 199 to 200 | COCC(=O)OC(=C1C(=O)N(C(N)=O)c2cc(Cl)c(F)cc21)c1cccs1
76 | 114 to 118 | Cc1cc(O)c(SCc2ccc(F)cc2)c(=O)o1
77 | 180 to 182 | CC(C)(C)C(=O)COc1nn(CC(=O)C(C)(C)C)c(-c2ccc(S(C)(=O)=O)cc2)c1-c1ccc(F)cc1
78 | 178 to 180 | O=C(O)COc1ccc2c(-c3ccccc3F)noc2c1I
79 | 149 | COC(=O)/C=C/c1ccc(OC)cc1N
80 | 93 to 95 | C=CCOc1cc(C(=O)O)cc(C(=O)N(C)C)c1
81 | 123 to 126 | C[Si](C)(C)OCCNc1ccc(NCCO[Si](C)(C)C)c2c1C(=O)c1ccccc1C2=O
82 | 167 to 169 | Cc1noc2cc3c(cc12)C1(CO3)C(=O)N(Cc2ncccc2F)c2ccccc21 (stereo not drawn)
83 | 179 | CN(C)C(C)(C)c1ccc(-c2nc(Nc3ccc(F)cc3)ncc2C#N)cc1
84 | 105 | CC(C)(O)c1onc(-c2ccccc2Cl)c1C(=O)c1nnn(Cc2cc(C(F)(F)F)cc(C(F)(F)F)c2)c1-c1cccnc1
85 | 190 to 191 | COc1ccc(N2CCN(Cc3n[nH]c4c(Cl)cccc34)CC2)cc1
86 | 73 to 76 | COC(=O)Cc1cc(Br)c(Sc2ccc(OC)c(C(C)C)c2)c(Br)c1
87 | 335 to 340 | O=C(O)c1c[nH]c2oc3ccccc3c(=O)c2c1=O
88 | 148 to 152 | Cc1cc(N)nc(C)c1-c1ccc(Cl)cc1
89 | 62 to 63.2 | C=C(C)C(=O)OCCCc1ccc2c(c1)N(C(C)(C)C)N(O)N2
90 | 188 to 189 | Cc1cc([C@@H](O)[C@@H](C)N2CCC(O)(c3ccc(F)cc3)CC2)ccc1O[Si](C(C)C)(C(C)C)C(C)C (relative stereo)
91 | 116 to 118 | CCOC(=O)c1ccc(-c2ccc(-c3cccc(OC)c3)c(-c3ccc4c(c3)C(C)(C)CCC4(C)C)c2)cc1
92 | 152 to 155 | CCOC(C)=NOc1nc(C(F)(F)F)cc(=O)n1-c1cc(Oc2ccccc2[N+](=O)[O-])c(Cl)cc1F
93 | 87 to 88 | C=C(C=O)c1ccc(Cl)cc1[N+](=O)[O-]
94 | 183 to 184 | COc1cc(Nc2nccc(-c3ccc(N4CCCC(CO)C4)nc3)n2)cc(OC)c1OC (stereo not drawn)
95 | 78 to 80 | CC(C)C(=O)n1cc(C(=O)C2CSC(c3cccnc3)N2)c2ccccc21 (stereo not drawn)
96 | 147 to 148 | CCCc1c(OCCCCc2ccc3cc(OC)c(OC)cc3c2)ccc(C(=O)O)c1O
97 | 186 to 187 | COC(=O)c1sc(-c2ccc(C#N)cc2)nc1C
98 | 104 to 107 | O=[N+]([O-])c1ccc(Sc2ccccc2)c(CO)c1
